Results as given in paper PMC6222820, “Synthesis of New Triarylpyrazole Derivatives Possessing Terminal Sulfonamide Moiety and Their Inhibitory Effects on PGE2 and Nitric Oxide Productions in Lipopolysaccharide-Induced RAW 264.7 Macrophages” (Molecules : A Journal of Synthetic Chemistry and Natural …, 2018).

What was measured:
[1] = system: LPS-induced RAW 264.7 macrophages; experiment: Nitric oxide (NO) production inhibition in LPS-induced RAW 264.7 macrophages (nitrite determination); assay type: cell-based; conditions: for Nitric Oxide % Inhibition: LPS-induced RAW 264.7 macrophages
Procedure: The ability of a certain molecule to inhibit the production of inflammatory mediator(s) is one of successful approach to treatment both chronic and acute inflammation.
(§1) Cell culture and sample treatment were performed as reported in the literature. The 3-(4,5-dimethylthiazol-2-yl)-2,5-diphenyltetrazolium bromide (MTT) assay for cell viability followed the procedure previously described in the literature. Nitrite determination was carried as described in the literature, and the PGE2 assay was carried as previously described.

RAW 264.7 macrophages = experiment: MTT assay for cell viability / cytotoxicity; assay type: cell-based; conditions: means ± SD of three independent experiments
Procedure: In addition to NO inhibition, the cytotoxic activity of compounds 1a–i, 2a–i, 3a–h, and 4a–h in RAW 264.7 macrophages were measured using the 3-(4,5-dimethylthiazol-2-yl)-2,5-diphenyltetrazolium bromide (MTT) assay to check whether the effects on the production of NO was caused by nonspecific cytotoxicity.
as §1

SMILES: COc1cccc(-c2nn(-c3ccccc3)cc2-c2ccnc(NCCNS(=O)(=O)c3ccc(C)cc3)c2)c1 [Compound 1f, N-(2-((4-(3-(3-Methoxyphenyl)-1-phenyl-1H-pyrazol-4-yl)pyridin-2-yl)amino)ethyl)-4-methyl benzenesulfonamide]
- Nitric Oxide % Inhibition ([1]; 1 µM): 16.29 ± 0.10%
- Nitric Oxide % Inhibition ([1]; 5 µM): 26.54 ± 0.65%
- Nitric Oxide % Inhibition ([1]; 10 µM): 53.09 ± 2.10%
- IC50 ([1]; nitric oxide production, means ± SD of three independent experiments, read-out: NO (IC50)): 9.42 ± 0.12 µM
- IC50 (RAW 264.7 macrophages): 291 ± 1.12 µM
